We go through nine compounds from patent publication US5786348A, “Methods for preparation and use of 1α,24(S)-dihydroxy vitamin D2” (priority 1995, dated 1998).

Each structure is given as a SMILES string. Read-outs that look alike come from different tables or passages of the source.

The target of data set [1] is T1, vitamin D receptor (VDR) (Homo sapiens, UniProt P11473).
T1 sequence (P11473 1-427): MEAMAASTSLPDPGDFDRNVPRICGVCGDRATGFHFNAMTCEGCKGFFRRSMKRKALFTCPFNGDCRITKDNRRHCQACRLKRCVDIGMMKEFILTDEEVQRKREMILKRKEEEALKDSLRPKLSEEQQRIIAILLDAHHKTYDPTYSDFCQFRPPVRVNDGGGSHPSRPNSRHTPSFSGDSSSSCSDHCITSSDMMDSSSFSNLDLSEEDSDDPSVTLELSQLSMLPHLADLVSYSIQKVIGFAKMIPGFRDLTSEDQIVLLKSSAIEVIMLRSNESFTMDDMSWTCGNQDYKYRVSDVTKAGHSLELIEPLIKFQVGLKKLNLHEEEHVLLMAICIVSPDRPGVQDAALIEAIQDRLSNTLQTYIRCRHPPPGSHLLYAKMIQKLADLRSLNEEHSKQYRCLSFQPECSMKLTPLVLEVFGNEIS
Briefly: Vitamin D-dependent transcriptional activation: growth hormone production in COS-1 cells co-transfected with VDR plasmid and VDRE-GH reporter. In kind it is cell-based. As to conditions: for Total GH Production: averages of duplicate determinations. On the procedure:
The biological activity in vitro of chemically synthesized 1α,24(S)-(OH)2 D2 and 1α,24(R)-(OH)2 D2 was measured using a vitamin D-dependent transcriptional activation model system in which a vitamin D receptor (VDR)-expressing plasmid pSG5-hVDR1/3and a plasmid p(CT4)^4 TKGH containing a Growth Hormone (GH)-gene, under the control of a vitamin D-responsive element (VDRE) were co-transfected into Green monkey kidney, COS-1 cells. DNA's for these two vectors were supplied by Dr. Mark Haussler, Department of Biochemistry, University of Arizona, Tucson, Ariz.
Transfected cells were incubated with vitamin D metabolites and growth hormone production was measured.

The subject of data set [2] is 1,25-(OH)2 D3 receptor site. As to conditions: Ishizuka et al., Steroids 1981, 1982; cited from earlier work.
Data set [3] has as its target T2, bovine thymus VDR (Bos taurus, UniProt Q28037).
T2 construct: commercially available kit of bovine thymus VDR; purchased Incstar (Stillwater, Minn.); host or cells: bovine thymus
T2 sequence (Q28037 1-426): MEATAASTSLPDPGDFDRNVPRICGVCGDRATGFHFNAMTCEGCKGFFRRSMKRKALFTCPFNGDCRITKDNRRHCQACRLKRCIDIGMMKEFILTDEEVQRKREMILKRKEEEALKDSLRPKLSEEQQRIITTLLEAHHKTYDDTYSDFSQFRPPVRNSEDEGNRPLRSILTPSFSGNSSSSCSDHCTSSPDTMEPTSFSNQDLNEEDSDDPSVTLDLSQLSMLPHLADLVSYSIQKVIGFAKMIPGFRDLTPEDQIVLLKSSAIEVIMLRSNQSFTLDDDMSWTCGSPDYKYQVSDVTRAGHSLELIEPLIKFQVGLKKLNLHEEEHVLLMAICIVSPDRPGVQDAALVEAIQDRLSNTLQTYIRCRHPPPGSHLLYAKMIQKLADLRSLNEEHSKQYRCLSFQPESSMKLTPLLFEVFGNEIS
The experiment in a line: Radioreceptor assay with bovine thymus VDR (Incstar), displacement of 3H-1α,25-(OH)2 D3. Format: binding. Particulars: bovine thymus VDR radioreceptor assay; read-out: Half-maximal binding (converted). From the text: Purified 1α,24(S)-(OH)2 D2 was quantitated by photodiode array spectrophotometry and assayed in the radioreceptor assay.
The purified 1α,24(R)-(OH)2 D2 and 1α,24(S)-(OH)2 D2 epimers were quantitated by ultraviolet spectroscopy. The concentration of 1α,24(R)-(OH)2 D2 required to produce the same displacement of ^3 H-1α,25-(OH)2 D3 tracer from the receptor was 20 to 30 times that required for 1α,24(S)-(OH)2 D2, as shown in FIG. 4.
For orientation: Loss of bound radioactivity is the signal in a displacement assay; it reports binding, not function.

For data set [4] the following is noted: human, in vivo; cited from earlier work.
The subject of data set [5] is Hep 3B cells. The experiment in a line: Metabolism of 1α-OH-D2 in Hep 3B human hepatoma cells at rising substrate concentration. In kind it is in vitro ADME. As to conditions: Experiment 2, photodiode array spectrophotometry. Here is the method: Substantially pure 1α-(OH)D2 was obtained from Bone Care International, Inc. of Madison, Wis. The 1α-(OH)D2 was cultured for 48 hours with cells derived from a human hepatoma, Hep 3B, in medium devoid of fetal calf serum using known methods in the art.
Lipid extracts of the combined medium and cells were generated by known methods in the art and were subjected to high pressure liquid chromatography (HPLC) on Zorbax-S1L developed with hexane/isopropanol/methanol (91:7:2). The putative 1α,24(?)-(OH)2 D2 metabolite eluted between the parent 1α-(OH)D2 and standard 1α,25-(OH)2 D2 (also obtained from Bone Care International, Inc. of Madison, Wis.). (As used herein, the term "1α,24(?)-(OH)2 D2 " is meant to indicate that the epimeric form has not been identified.) The 1α,24(?)-(OH)2 D2 was further purified by this HPLC system before the metabolite's identification was undertaken using mass spectrometry analysis.
Hep 3B cells were incubated with 1α-OH-D2, as described above, at final concentrations of 1, 10, or 100 nM (Experiment 1), and 1 or 10 μM (Experiment 2) and 1α,24(S)-(OH)2 D2 was extracted and purified. The 1α,24(S)-(OH)2 D2 and 1α,25-(OH)2 D2 metabolites were quantitated by recovered radiolabel (Experiment 1) or by photodiode array spectrophotometry (Experiment 2).

The nature of data set [6]: Blood metabolite levels in osteoporotic women given 1α-OH-D2. Format: in vivo, human. Particulars: one day after a single 2 μg dose. Here is the method: An increase in the production of 1α,24(S)-(OH)2 D2 relative to 1α,25-(OH)2 D2 has also been observed by the present inventors in human females who received 1α-OH-D2 as part of an investigation of that drug for the treatment of osteoporosis. Following either a single dose of 2 μg of 1α-OH-D2 or daily doses of 8 μg/day for one week, blood was collected and analyzed for the metabolites 1α,24(S)-(OH)2 D2 and 1α,25-(OH)2 D2. Lipid was extracted from the blood, and the metabolites were purified by HPLC using standard methods and quantified with the radioreceptor assay produced by Incstar (Stillwater, Minn.). One day after a single 2 μg dose, the level of 1α,24(S)-(OH)2 D2 was undetectable with the 1α,25-(OH)2 D2 level being approximately 11 pg/ml. In contrast, one day following the last dose of 8 μg, the level of 1α,24(S)-(OH)2 D2 averaged 9 pg/ml with the 1α,25-(OH)2 D2 level averaging 30 pg/ml.

Data set [7] is classed as in vivo, rat. On the procedure: Vitamin D2 or 24-OH-D2 was administered (either oral or intraperitoneal supplementation) to vitamin D-deficient rats. Lipid extracts of the plasma were prepared and the metabolites purified by the method of Horst et al. (Horst, R. L., Koszewski, N. J. and Reinhardt, T. A., Biochem., 29:578-82 (1990)) described below for synthesyzing standard biological 1α,24-(OH)2 D2.
Standard biological 1α,24-(OH)2 D2 was synthesized in vitro from 24-OH-D2 by incubating 10 μg of 24-OH-D2 in flask containing 5 ml of 20% kidney homogenates made from vitamin D-deficient chicks. The product of this reaction was isolated by HPLC and identified by mass spectrometry.

Setting [8] is: inducer molar concentration 10^-7.
The mark [9] stands for this setting: inducer molar concentration 10^-8.
The mark [10] stands for this setting: inducer molar concentration 10^-9.
The mark [11] stands for this setting: inducer molar concentration 10^-5.
The mark [12] stands for this setting: inducer molar concentration 10^-6.

For `C=C1/C(=C\C=C2/CCC[C@]3(C)[C@@H]([C@H](C)/C=C/[C@](C)(O)C(C)C)CC[C@@H]23)C[C@@H](O)C[C@@H]1O` [1α,24(R)-(OH)2 D2, 1α,24(R)-dihydroxy vitamin D2], the “Net vitamin D-inducible GH-production” value came out at 1256 ng/mL in data set [1] (setting [8]), 1056 ng/mL in data set [1] (setting [9]) and 36 ng/mL in data set [1] (setting [10]). In addition, the results for the “Total GH Production” value in data set [1] (setting [8]), in data set [1] (setting [9]) and in data set [1] (setting [10]) were 1300 ng/mL, 1100 ng/mL and 80 ng/mL, respectively.
Take `C=C1/C(=C\C=C2/CCC[C@]3(C)[C@@H]([C@H](C)CC[C@@H](O)C(C)C)CC[C@@H]23)C[C@@H](O)C[C@@H]1O` [1α,24(R)-(OH)2 D3, 1α,24(R)-dihydroxyvitamin D3]: in data set [2], the “Binding of the 1,25-(OH)2 D3 receptor site relative to 1,25-(OH)2 D3” value is listed as “more tightly”.
Consider `C=C1/C(=C\C=C2/CCC[C@]3(C)[C@@H]([C@H](C)/C=C/[C@H](C)C(C)(C)O)CC[C@@H]23)C[C@@H](O)C[C@@H]1O` [1α,25-(OH)2D2, 1α,25-dihydroxy vitamin D2, reference compound], for which the IC50 in data set [3] was 0.187 nM.
Consider `C=C1/C(=C\C=C2/CCC[C@]3(C)[C@@H]([C@H](C)CCCC(C)C)CC[C@@H]23)C[C@@H](O)C[C@@H]1O` [1α-(OH)D3, 1α-hydroxy vitamin D3], for which the “Safety of dosage levels of 2.0 μg/day or greater” value in data set [4] is listed as “not safely obtained”.
As to `C=C1/C(=C\C=C2/CCC[C@]3(C)[C@@H]([C@H](C)/C=C/[C@H](C)C(C)C)CC[C@@H]23)C[C@@H](O)C[C@@H]1O` [1α-OH-D2, 1α-hydroxy vitamin D2], in data set [5] (substrate concentration 1 μM), the “Rate of Production of 1α,24(S)-(OH)2 D2” value was determined as 4.9 pmol per 10^6 cells/day. Further, in data set [5] (substrate concentration 10 μM), the “Rate of Production of 1α,24(S)-(OH)2 D2” value came out at 59 pmol per 10^6 cells/day and the “Rate of Production of 1α,25-(OH)2 D2” value was determined as 7.4 pmol per 10^6 cells/day. Besides, the “Blood level of metabolite 1α,24(S)-(OH)2 D2” value in data set [6] was “undetectable”.
As for `C=C1CC[C@H](O)C/C1=C/C=C1\CCC[C@]2(C)[C@@H]([C@H](C)/C=C/C(C)(O)C(C)C)CC[C@@H]12` (stereo partly shown) [24-OH-D2, 24-hydroxyvitamin D2], the “Metabolite isolated from plasma lipid extracts” value in data set [7] (rat, in vivo) is reported as “co-migrated on HPLC with the standard 1α,24-(OH)2 D2”.
`C=C1CC[C@H](O)C/C1=C/C=C1\CCC[C@]2(C)[C@@H]([C@H](C)CCCC(C)(C)O)CC[C@@H]12` [25-OH-D3, 25-hydroxy vitamin D3, reference compound]: the “Net vitamin D-inducible GH-production” value in data set [1] (setting [11]) amounted to 731 ng/mL; in data set [1] (setting [12]), 1056 ng/mL; in data set [1] (setting [8]), 201 ng/mL. For the same compound, the “Total GH Production” value in data set [1] (setting [11]) stood at 775 ng/mL; in data set [1] (setting [12]), 1100 ng/mL; in data set [1] (setting [8]), 245 ng/mL.
In the case of `C=C1CC[C@H](O)C/C1=C/C=C1\CCC[C@]2(C)[C@@H]([C@H](C)/C=C/[C@H](C)C(C)C)CC[C@@H]12` [vitamin D2, Vitamin D2], in data set [7] (vitamin D-deficient rats, HPLC against standard biological 1α,24-(OH)2 D2), the “Metabolite isolated from plasma lipid extracts” value is given as “co-migrated on HPLC with the standard 1α,24-(OH)2 D2”.
For `C=C1CC[C@H](O)C/C1=C/C=C1\CCC[C@]2(C)[C@@H]([C@H](C)CCCC(C)C)CC[C@@H]12` [vitamin D3], the 24-OH-D3 in plasma entry in data set [7] (comparable vitamin D-deficient rats) is listed as “no detectable”.
